# Measurements published in US20230085307A1, “PYRIDAZINONE COMPOUND AND HERBICIDE” (NISSAN CHEMICAL CORPORATION, priority 2019, published 2023).
# Assays:
# [1] = system: Italian ryegrass; assay: Test Example 4: herbicidal effect by soil treatment (Table 19, symbol K); assay type: in vivo, Italian ryegrass (Lolium multiflorum); settings: amount of applied herbicide 320 g/ha
# Method in brief: (§1)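 Emulsion of test compound, water-diluted to predetermined amount, sprayed on soil after sowing (seed depth ~1.5 cm, sterilized diluvial soil). Greenhouse, 25–30° C. Effect graded at three weeks post-spray.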
# [2] = system: false cleavers; assay: Test Example 4: herbicidal effect by soil treatment (Table 19, symbol Q); assay type: in vivo, false cleavers (Galium spurium); settings: amount of applied herbicide 320 g/ha
# Method in brief: as §1
# [3] = system: redroot pigweed; assay: Test Example 4: herbicidal effect by soil treatment (Table 19, symbol N); assay type: in vivo, redroot pigweed (Amaranthus retroflexus); settings: amount of applied herbicide 320 g/ha
# Method in brief: as §1
# [4] = system: lambsquarters; assay: Test Example 4: herbicidal effect by soil treatment (Table 19, symbol O); assay type: in vivo, lambsquarters (Chenopodium album); settings: amount of applied herbicide 320 g/ha
# Method in brief: as §1
# [5] = system: Japanese bulrush; assay: Test Example 1: herbicidal activity, application before weed generation under submerged conditions (Table 16, symbol B); assay type: in vivo, Japanese bulrush (Schoenoplectus juncoides); settings: 320 g/ha applied herbicide
# Method in brief: (§2)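 Submerged Wagner pots (alluvial soil, 4 cm water) sown with weed seeds and planted with 2.5-leaf rice seedlings; emulsifiable concentrate diluted in water applied to water surface on sowing day. Held in greenhouse at 25-30 °C; injury scored 0-5 by herbicidal rate after three weeks.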
# [6] = system: velvetleaf; assay: Test Example 5: herbicidal effect by foliage application, plastic box (Table 20, symbol M); assay type: in vivo, velvetleaf (Abutilon theophrasti); settings: foliage application, AAH 320 g/ha, evaluated three weeks after application
# Method in brief: (§3)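 Post-emergence foliar test in sterilized diluvial soil. Compound applied as water-diluted emulsion at a predetermined rate to 14-day-old plants; evaluation at three weeks.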
# [7] = system: late watergrass; assay: Test Example 1: herbicidal activity, application before weed generation under submerged conditions (Table 16, symbol A); assay type: in vivo, late watergrass (Echinochloa oryzicola); settings: 320 g/ha applied herbicide
# Method in brief: as §2
# [8] = system: southern crabgrass; assay: Test Example 4: herbicidal effect by soil treatment (Table 19, symbol F); assay type: in vivo, southern crabgrass (Digitaria ciliaris); settings: amount of applied herbicide 320 g/ha
# Method in brief: as §1
# [9] = system: Chinese sprangletop; assay: Test Example 3: herbicidal effect by foliage application, Wagner pot (Table 18, symbol D); assay type: in vivo, chinese sprangletop (Leptochloa chinensis); settings: amount of applied herbicide 320 g/ha
# Method in brief: (§4)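 Plants were sown in alluvial soil held under 0.1–0.5 cm standing water and grown 14 days in a greenhouse at 25–30 °C. An emulsifiable formulation, water-diluted to the set dose, was then sprayed onto the foliage, and effects were scored three weeks later using previously defined criteria.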
# [10] = system: chickweed; assay: Test Example 5: herbicidal effect by foliage application, plastic box (Table 20, symbol P); assay type: in vivo, common chickweed (Stellaria media); settings: foliage application, AAH 320 g/ha, evaluated three weeks after application
# Method in brief: as §3
# [11] = system: windgrass; assay: Test Example 4: herbicidal effect by soil treatment (Table 19, symbol L); assay type: in vivo, windgrass (Apera spica-venti); settings: amount of applied herbicide 320 g/ha
# Method in brief: as §1
# [12] = system: wild oat; assay: Test Example 4: herbicidal effect by soil treatment (Table 19, symbol I); assay type: in vivo, wild oat (Avena fatua); settings: amount of applied herbicide 320 g/ha
# Method in brief: as §1
# [13] = system: rice flat sedge; assay: Test Example 3: herbicidal effect by foliage application, Wagner pot (Table 18, symbol E); assay type: in vivo, rice flat sedge (Cyperus iria); settings: amount of applied herbicide 320 g/ha
# Method in brief: as §4
# [14] = system: barnyard grass; assay: Test Example 3: herbicidal effect by foliage application, Wagner pot (Table 18, symbol H); assay type: in vivo, barnyard grass (Echinochloa crus-galli); settings: amount of applied herbicide 320 g/ha
# Method in brief: as §4
# [15] = system: southern crabgrass; assay: Test Example 5: herbicidal effect by foliage application, plastic box (Table 20, symbol F); assay type: in vivo, southern crabgrass (Digitaria ciliaris); settings: foliage application, AAH 320 g/ha, evaluated three weeks after application
# Method in brief: as §3
# [16] = system: oval-leafed pondweed; assay: Test Example 1: herbicidal activity, application before weed generation under submerged conditions (Table 16, symbol C); assay type: in vivo, oval-leafed pondweed (Monochoria vaginalis); settings: 320 g/ha applied herbicide
# Method in brief: as §2
# [17] = system: Italian ryegrass; assay: Test Example 5: herbicidal effect by foliage application, plastic box (Table 20, symbol K); assay type: in vivo, Italian ryegrass (Lolium multiflorum); settings: foliage application, AAH 320 g/ha, evaluated three weeks after application
# Method in brief: as §3
# [18] = system: windgrass; assay: Test Example 5: herbicidal effect by foliage application, plastic box (Table 20, symbol L); assay type: in vivo, windgrass (Apera spica-venti); settings: foliage application, AAH 320 g/ha, evaluated three weeks after application
# Method in brief: as §3
# [19] = system: green foxtail; assay: Test Example 5: herbicidal effect by foliage application, plastic box (Table 20, symbol G); assay type: in vivo, green foxtail (Setaria viridis); settings: foliage application, AAH 320 g/ha, evaluated three weeks after application
# Method in brief: as §3
# [20] = system: persian speedwell; assay: Test Example 4: herbicidal effect by soil treatment (Table 19, symbol R); assay type: in vivo, Persian speedwell (Veronica persica); settings: amount of applied herbicide 320 g/ha
# Method in brief: as §1
# [21] = system: barnyard grass; assay: Test Example 4: herbicidal effect by soil treatment (Table 19, symbol H); assay type: in vivo, barnyard grass (Echinochloa crus-galli); settings: amount of applied herbicide 320 g/ha
# Method in brief: as §1
# [22] = system: lambsquarters; assay: Test Example 5: herbicidal effect by foliage application, plastic box (Table 20, symbol O); assay type: in vivo, lambsquarters (Chenopodium album); settings: foliage application, AAH 320 g/ha, evaluated three weeks after application
# Method in brief: as §3
# [23] = system: barnyard grass; assay: Test Example 5: herbicidal effect by foliage application, plastic box (Table 20, symbol H); assay type: in vivo, barnyard grass (Echinochloa crus-galli); settings: foliage application, AAH 320 g/ha, evaluated three weeks after application
# Method in brief: as §3
# [24] = system: wild oat; assay: Test Example 5: herbicidal effect by foliage application, plastic box (Table 20, symbol I); assay type: in vivo, wild oat (Avena fatua); settings: foliage application, AAH 320 g/ha, evaluated three weeks after application
# Method in brief: as §3
# [25] = system: redroot pigweed; assay: Test Example 5: herbicidal effect by foliage application, plastic box (Table 20, symbol N); assay type: in vivo, redroot pigweed (Amaranthus retroflexus); settings: foliage application, AAH 320 g/ha, evaluated three weeks after application
# Method in brief: as §3
# [26] = system: green foxtail; assay: Test Example 4: herbicidal effect by soil treatment (Table 19, symbol G); assay type: in vivo, green foxtail (Setaria viridis); settings: amount of applied herbicide 320 g/ha
# Method in brief: as §1
# [27] = system: persian speedwell; assay: Test Example 5: herbicidal effect by foliage application, plastic box (Table 20, symbol R); assay type: in vivo, Persian speedwell (Veronica persica); settings: foliage application, AAH 320 g/ha, evaluated three weeks after application
# Method in brief: as §3
# [28] = system: blackgrass; assay: Test Example 5: herbicidal effect by foliage application, plastic box (Table 20, symbol J); assay type: in vivo, blackgrass (Alopecurus myosuroides); settings: foliage application, AAH 320 g/ha, evaluated three weeks after application
# Method in brief: as §3
# [29] = system: velvetleaf; assay: Test Example 4: herbicidal effect by soil treatment (Table 19, symbol M); assay type: in vivo, velvetleaf (Abutilon theophrasti); settings: amount of applied herbicide 320 g/ha
# Method in brief: as §1
# [30] = system: blackgrass; assay: Test Example 4: herbicidal effect by soil treatment (Table 19, symbol J); assay type: in vivo, blackgrass (Alopecurus myosuroides); settings: amount of applied herbicide 320 g/ha
# Method in brief: as §1
SMILES,herbicidal effect on K: Italian ryegrass [1],herbicidal effect on Q: false cleavers [2],herbicidal effect on N: redroot pigweed [3],herbicidal effect on O: lambsquarters [4],Herbicidal effect on B: Japanese bulrush (grade 0-5) [5],"M: velvetleaf, herbicidal effect (criteria 0-5) [6]",Herbicidal effect on A: late watergrass (grade 0-5) [7],herbicidal effect on F: southern crabgrass [8],herbicidal effect on D: Chinese sprangletop [9],"P: chickweed, herbicidal effect (criteria 0-5) [10]",herbicidal effect on L: windgrass [11],herbicidal effect on I: wild oat [12],herbicidal effect on E: rice flat sedge [13],herbicidal effect on H: barnyard grass [14],"F: southern crabgrass, herbicidal effect (criteria 0-5) [15]",Herbicidal effect on C: oval-leafed pondweed (grade 0-5) [16],"K: Italian ryegrass, herbicidal effect (criteria 0-5) [17]","L: windgrass, herbicidal effect (criteria 0-5) [18]","G: green foxtail, herbicidal effect (criteria 0-5) [19]",herbicidal effect on R: persian speedwell [20],other results
Cc1nn(C)c(=O)c(-c2c(-c3ccc(SCC(F)F)cc3)sc3ccc(F)cc23)c1O [2-260],0 (Herbicidal rate of 5% or less (almost no effect)),0 (Herbicidal rate of 5% or less (almost no effect)),5 (Herbicidal rate of 90% or more (almost completely withered)),5 (Herbicidal rate of 90% or more (almost completely withered)),0 (Herbicidal rate of 5% or less (almost no effect)),4 (Herbicidal rate of 70% or more and less than 90%),3 (Herbicidal rate of 40% or more and less than 70%),4 (Herbicidal rate of 70% or more and less than 90%),3 (Herbicidal rate of 40% or more and less than 70%),5 (Herbicidal rate of 90% or more (almost completely withered)),0 (Herbicidal rate of 5% or less (almost no effect)),0 (Herbicidal rate of 5% or less (almost no effect)),3 (Herbicidal rate of 40% or more and less than 70%),5 (Herbicidal rate of 90% or more (almost completely withered)),5 (Herbicidal rate of 90% or more (almost completely withered)),0 (Herbicidal rate of 5% or less (almost no effect)),5 (Herbicidal rate of 90% or more (almost completely withered)),5 (Herbicidal rate of 90% or more (almost completely withered)),5 (Herbicidal rate of 90% or more (almost completely withered)),3 (Herbicidal rate of 40% or more and less than 70%),"herbicidal effect on H: barnyard grass [21]: 3 (Herbicidal rate of 40% or more and less than 70%); O: lambsquarters, herbicidal effect (criteria 0-5) [22]: 5 (Herbicidal rate of 90% or more (almost completely withered)); H: barnyard grass, herbicidal effect (criteria 0-5) [23]: 5 (Herbicidal rate of 90% or more (almost completely withered)); I: wild oat, herbicidal effect (criteria 0-5) [24]: 5 (Herbicidal rate of 90% or more (almost completely withered)); N: redroot pigweed, herbicidal effect (criteria 0-5) [25]: 5 (Herbicidal rate of 90% or more (almost completely withered)); herbicidal effect on G: green foxtail [26]: 5 (Herbicidal rate of 90% or more (almost completely withered)); R: persian speedwell, herbicidal effect (criteria 0-5) [27]: 5 (Herbicidal rate of 90% or more (almost completely withered)); J: blackgrass, herbicidal effect (criteria 0-5) [28]: 4 (Herbicidal rate of 70% or more and less than 90%); herbicidal effect on M: velvetleaf [29]: 3 (Herbicidal rate of 40% or more and less than 70%)"
Cc1nn(C)c(=O)c(-c2c(-c3cccc(OCc4ccccc4)c3)sc3ccc(F)cc23)c1O [2-267],0 (Herbicidal rate of 5% or less (almost no effect)),0 (Herbicidal rate of 5% or less (almost no effect)),2 (Herbicidal rate of 20% or more and less than 40%),0 (Herbicidal rate of 5% or less (almost no effect)),0 (Herbicidal rate of 5% or less (almost no effect)),3 (Herbicidal rate of 40% or more and less than 70%),2 (Herbicidal rate of 20% or more and less than 40%),5 (Herbicidal rate of 90% or more (almost completely withered)),5 (Herbicidal rate of 90% or more (almost completely withered)),5 (Herbicidal rate of 90% or more (almost completely withered)),0 (Herbicidal rate of 5% or less (almost no effect)),0 (Herbicidal rate of 5% or less (almost no effect)),3 (Herbicidal rate of 40% or more and less than 70%),5 (Herbicidal rate of 90% or more (almost completely withered)),4 (Herbicidal rate of 70% or more and less than 90%),0 (Herbicidal rate of 5% or less (almost no effect)),3 (Herbicidal rate of 40% or more and less than 70%),0 (Herbicidal rate of 5% or less (almost no effect)),5 (Herbicidal rate of 90% or more (almost completely withered)),4 (Herbicidal rate of 70% or more and less than 90%),"herbicidal effect on J: blackgrass [30]: 0 (Herbicidal rate of 5% or less (almost no effect)); herbicidal effect on H: barnyard grass [21]: 5 (Herbicidal rate of 90% or more (almost completely withered)); O: lambsquarters, herbicidal effect (criteria 0-5) [22]: 4 (Herbicidal rate of 70% or more and less than 90%); H: barnyard grass, herbicidal effect (criteria 0-5) [23]: 5 (Herbicidal rate of 90% or more (almost completely withered)); I: wild oat, herbicidal effect (criteria 0-5) [24]: 0 (Herbicidal rate of 5% or less (almost no effect)); N: redroot pigweed, herbicidal effect (criteria 0-5) [25]: 4 (Herbicidal rate of 70% or more and less than 90%); herbicidal effect on G: green foxtail [26]: 3 (Herbicidal rate of 40% or more and less than 70%); R: persian speedwell, herbicidal effect (criteria 0-5) [27]: 5 (Herbicidal rate of 90% or more (almost completely withered)); J: blackgrass, herbicidal effect (criteria 0-5) [28]: 2 (Herbicidal rate of 20% or more and less than 40%); herbicidal effect on M: velvetleaf [29]: 0 (Herbicidal rate of 5% or less (almost no effect))"
